Measured values as given in EP2465840A1, “Terpene ether” (CABB GmbH, priority 2010, dated 2012).
“Also recorded” adds a separate entry of the source.

Key:
Assay type in all cases: physicochemical
[1] = Visual evaluation of foam (foam appearance, bubble size); set-up: key to Blasengröße nach 1 min. / Blasengröße nach 5 min.: klein (1); mittel (2); mittel-groß (3); groß (4); sehr groß (5); key to Aussehen des Schaums nach 1 min. / Aussehen des Schaums nach 5 min.: verschwindend (1); locker (2); mittelkompakt (3); sehr kompakt (4); conditions: Reinigungsformulierung enthaltend Dinatriumlaurylsuccinat (wässrig)
Procedure: Die Qualität des Schaums wurde visuell nach der folgenden Methode festgestellt: 100 g der Lösung mit 0,5 % WAS wurden in einen 250 ml Glaszylinder mit Schraubverschluss und einem Innendurchmesser von 35 mm überführt. Der Zylinder wurde 10 mal gedreht und die Blasengröße und die Schaumkompaktheit wurden nach einer Minute nach dem Mischen und nach 5 Minuten ermittelt. Dabei erfolgte die Beurteilung auf der Grundlage der folgenden beschreibenden Parameter:
Aussehen des Schaums: verschwindend (1), locker (2), mittelkompakt (3), sehr kompakt (4)
Blasengröße: klein (1), mittel (2), mittel-groß (3), groß (4), sehr groß (5) Tabelle 4: […]

[2] = Brookfield viscosity (25°C) of cleaning formulation 24 h after addition of terpene ether
Procedure: Im Rahmen der vorliegenden Erfindung wird die Brookfield-Viskosität einer wässrigen Zusammensetzung vorzugsweise mittels einem RTV Brookfield-Viskosimeter bei 25°C ermittelt, besonders bevorzugt mit einer Spindel # 3 oder # 4.
Die in Tabelle 1 angegebene Reinigungsformulierung wurde untersucht. Tabelle 1: Reinigungsformulierung (WAS 15 %)
Zu dieser Formulierung wurden NP 1 oder NP 27 gegeben. Die gemessenen Brookfield-Viskositätswerte nach 24 Stunden werden in Tabelle 2 und 3 zusammengefasst. Tabelle 2: Brookfield-Viskosität (25°C)
Zu dieser Formulierung wurden NP 1 oder NP 27 sowie danach Natriumchlorid gegeben. Die gemessenen Brookfield-Viskositätswerte nach 24 Stunden werden in den folgenden Tabellen zusammengefasst. Tabelle 13: Brookfield-Viskosität (25°C)

[3] = Foam height and foam stability of formulation; conditions: Reinigungsformulierung enthaltend Dinatriumlaurylsuccinat (wässrig); for h1: Schaumhöhe 5 Minuten nach dem Mischen; for h1 / h0: Lösung mit 0,5 % WAS; for h0: Schaumhöhe eine Minute nach dem Mischen; for Stabilität: Schaumstabilität (h1/h0)*100
Procedure: Die Schaumhöhe der Formulierungen wurde nach folgender Methode ermittelt: In einem 400 ml Becher wurden 100 g einer wässrigen Lösung mit 0,5 % WAS hergestellt. Für eine Minute wurde die Lösung bei […] runden […] wurde die […] Minute […]0) und 5 […]. Die Schaumstabilität in % ergibt sich dann über (h1/h0)*100.

[4] = Appearance of cleaning formulation after 24 h
[5] = pH of cleaning formulation after addition of terpene ether
[6] = Reinigungsformulierung enthaltend Coco Glucosid, +0,5 %
[7] = Reinigungsformulierung enthaltend Coco Glucosid, +1 %
[8] = Reinigungsformulierung enthaltend Coco Glucosid, +5 %
[9] = Reinigungsformulierung enthaltend Dinatriumlaurylsuccinat (wässrig), +0,5 %, nach 24 Stunden
[10] = Reinigungsformulierung enthaltend Dinatriumlaurylsuccinat (wässrig), +1 %, nach 24 Stunden
[11] = Reinigungsformulierung enthaltend Dinatriumlaurylsuccinat (wässrig), +5 %, nach 24 Stunden
[12] = Reinigungsformulierung enthaltend Natriumlaurylethersulfat, Dinatriumcocoamphodiacetat, 0,5 % NaCl, +0,5 %, nach 24 Stunden
[13] = Reinigungsformulierung enthaltend Natriumlaurylethersulfat, Dinatriumcocoamphodiacetat, 0,5 % NaCl, +0,25 %, nach 24 Stunden
[14] = Reinigungsformulierung enthaltend Natriumlaurylethersulfat, Dinatriumcocoamphodiacetat, 0,5 % NaCl, +1 %, nach 24 Stunden
[15] = Reinigungsformulierung enthaltend Natriumlaurylethersulfat, Dinatriumcocoamphodiacetat, 0,5 % NaCl, +2 %, nach 24 Stunden
[16] = Reinigungsformulierung enthaltend Natriumlaurylethersulfat, Dinatriumcocoamphodiacetat, 1 % NaCl, +0,5 %, nach 24 Stunden
[17] = Reinigungsformulierung enthaltend Natriumlaurylethersulfat, Dinatriumcocoamphodiacetat, 1 % NaCl, +0,25 %, nach 24 Stunden
[18] = Reinigungsformulierung enthaltend Natriumlaurylethersulfat, Dinatriumcocoamphodiacetat, 1 % NaCl, +1 %, nach 24 Stunden
[19] = Reinigungsformulierung enthaltend Natriumlaurylethersulfat, Dinatriumcocoamphodiacetat, 1 % NaCl, +2 %, nach 24 Stunden
[20] = Reinigungsformulierung enthaltend Natriumlaurylethersulfat, Dinatriumcocoamphodiacetat, +0,5 %, nach 24 Stunden
[21] = Reinigungsformulierung enthaltend Natriumlaurylethersulfat, Dinatriumcocoamphodiacetat, +0,25 %, nach 24 Stunden
[22] = Reinigungsformulierung enthaltend Natriumlaurylethersulfat, Dinatriumcocoamphodiacetat, +1 %, nach 24 Stunden
[23] = Reinigungsformulierung enthaltend Natriumlaurylethersulfat, Dinatriumcocoamphodiacetat, +2 %, nach 24 Stunden
[24] = Reinigungsformulierung enthaltend Dinatriumlaurylsuccinat (wässrig), +0,5 %
[25] = Reinigungsformulierung enthaltend Dinatriumlaurylsuccinat (wässrig), +1 %
[26] = Reinigungsformulierung enthaltend Dinatriumlaurylsuccinat (wässrig), +5 %

CC1(C)C2CCC1(C)C(OCC1COC(=O)O1)C2 (stereo not drawn) [NP 27]
Aussehen des Schaums nach 1 min. ([1]; +0,5 %): 2 | Aussehen des Schaums nach 5 min. ([1]; +0,5 %): 1 | Blasengröße nach 1 min. ([1]; +0,5 %): 4 | Blasengröße nach 5 min. ([1]; +0,5 %): 5 | Aussehen des Schaums nach 1 min. ([1]; +1 %): 3 | Aussehen des Schaums nach 5 min. ([1]; +1 %): 1 | Blasengröße nach 1 min. ([1]; +1 %): 3 | Blasengröße nach 5 min. ([1]; +1 %): 5 | Aussehen des Schaums nach 1 min. ([1]; +5 %): 3 | Aussehen des Schaums nach 5 min. ([1]; +5 %): 1 | Blasengröße nach 1 min. ([1]; +5 %): 4 | Blasengröße nach 5 min. ([1]; +5 %): 5 | BF-Viskosität (2,5 rpm) [2, 6]: 16400 mPas | BF-Viskosität (5 rpm) [2, 6]: 15800 mPas | BF-Viskosität (2,5 rpm) [2, 7]: 1000 mPas | BF-Viskosität (5 rpm) [2, 7]: 900 mPas | BF-Viskosität (2,5 rpm) [2, 8]: 80 mPas | BF-Viskosität (5 rpm) [2, 8]: 60 mPas | BF-Viskosität (2,5 rpm) [2, 9]: 6800 mPas | BF-Viskosität (5 rpm) [2, 9]: 6800 mPas | BF-Viskosität (2,5 rpm) [2, 10]: 30400 mPas | BF-Viskosität (5 rpm) [2, 10]: 27800 mPas | BF-Viskosität (2,5 rpm) [2, 11]: 60 mPas | BF-Viskosität (5 rpm) [2, 11]: 40 mPas | BF-Viskosität (2,5 rpm) [2, 12]: 35200 mPas | BF-Viskosität (5 rpm) [2, 12]: 31000 mPas | BF-Viskosität (2,5 rpm) [2, 13]: 19600 mPas | BF-Viskosität (5 rpm) [2, 13]: 19000 mPas | BF-Viskosität (2,5 rpm) [2, 14]: 40800 mPas | BF-Viskosität (5 rpm) [2, 14]: 36800 mPas | BF-Viskosität (2,5 rpm) [2, 15]: 7400 mPas | BF-Viskosität (5 rpm) [2, 15]: 7200 mPas | BF-Viskosität (2,5 rpm) [2, 16]: 46400 mPas | BF-Viskosität (5 rpm) [2, 16]: 40400 mPas | BF-Viskosität (2,5 rpm) [2, 17]: 33200 mPas | BF-Viskosität (5 rpm) [2, 17]: 29000 mPas | BF-Viskosität (2,5 rpm) [2, 18]: 43200 mPas | BF-Viskosität (5 rpm) [2, 18]: 38800 mPas | BF-Viskosität (2,5 rpm) [2, 19]: 4000 mPas | BF-Viskosität (5 rpm) [2, 19]: 3800 mPas | BF-Viskosität (2,5 rpm) [2, 20]: 15600 mPas | BF-Viskosität (5 rpm) [2, 20]: 15000 mPas | BF-Viskosität (2,5 rpm) [2, 21]: 9200 mPas | BF-Viskosität (5 rpm) [2, 21]: 8700 mPas | BF-Viskosität (2,5 rpm) [2, 22]: 27600 mPas | BF-Viskosität (5 rpm) [2, 22]: 25600 mPas | BF-Viskosität (2,5 rpm) [2, 23]: 12800 mPas | BF-Viskosität (5 rpm) [2, 23]: 12400 mPas | h1 ([3]; 0,5 %): 210 mm | h0 ([3]; 0,5 %): 240 mm | Stabilität ([3]; 0,5 %): 88% | h1 ([3]; 1 %): 180 mm | h0 ([3]; 1 %): 215 mm | Stabilität ([3]; 1 %): 84% | h1 ([3]; 5 %): 175 mm | h0 ([3]; 5 %): 210 mm | Stabilität ([3]; 5 %): 83% | Aussehen nach 24 h [4, 6]: transparent Gel-flüssig | Aussehen nach 24 h [4, 7]: opaleszent Phasenseparation | Aussehen nach 24 h [4, 8]: weiß Phasenseparation | Aussehen nach 24 h [4, 24]: transparent; also recorded: flüssig | Aussehen nach 24 h [4, 25]: transparent and Gel | Aussehen nach 24 h [4, 26]: Weiß and Flüssig | Aussehen nach 24 h ([4]; Reinigungsformulierung enthaltend Natriumlaurylethersulfat, Dinatriumcocoamphodiacetat, 0,5 % NaCl, +0,5 %): transparent Gel | Aussehen nach 24 h ([4]; Reinigungsformulierung enthaltend Natriumlaurylethersulfat, Dinatriumcocoamphodiacetat, 0,5 % NaCl, +0,25 %): transparent Gel-flüssig | Aussehen nach 24 h ([4]; Reinigungsformulierung enthaltend Natriumlaurylethersulfat, Dinatriumcocoamphodiacetat, 0,5 % NaCl, +1 %): transparent Gel | Aussehen nach 24 h ([4]; Reinigungsformulierung enthaltend Natriumlaurylethersulfat, Dinatriumcocoamphodiacetat, 0,5 % NaCl, +2 %): opaleszent flüssig | Aussehen nach 24 h ([4]; Reinigungsformulierung enthaltend Natriumlaurylethersulfat, Dinatriumcocoamphodiacetat, 1 % NaCl, +0,5 %): transparent Gel | Aussehen nach 24 h ([4]; Reinigungsformulierung enthaltend Natriumlaurylethersulfat, Dinatriumcocoamphodiacetat, 1 % NaCl, +0,25 %): transparent Gel | Aussehen nach 24 h ([4]; Reinigungsformulierung enthaltend Natriumlaurylethersulfat, Dinatriumcocoamphodiacetat, 1 % NaCl, +1 %): transparent Gel | Aussehen nach 24 h ([4]; Reinigungsformulierung enthaltend Natriumlaurylethersulfat, Dinatriumcocoamphodiacetat, 1 % NaCl, +2 %): weiß flüssig | Aussehen nach 24 h ([4]; Reinigungsformulierung enthaltend Natriumlaurylethersulfat, Dinatriumcocoamphodiacetat, +0,5 %): transparent Gel-flüssig | Aussehen nach 24 h ([4]; Reinigungsformulierung enthaltend Natriumlaurylethersulfat, Dinatriumcocoamphodiacetat, +0,25 %): transparent flüssig | Aussehen nach 24 h ([4]; Reinigungsformulierung enthaltend Natriumlaurylethersulfat, Dinatriumcocoamphodiacetat, +1 %): transparent Gel | Aussehen nach 24 h ([4]; Reinigungsformulierung enthaltend Natriumlaurylethersulfat, Dinatriumcocoamphodiacetat, +2 %): opaleszent flüssig | pH [5, 6]: 6 | pH [5, 7]: 6 | pH [5, 8]: 6,1 | pH [5, 24]: 6,3 | pH [5, 25]: 6,35 | pH [5, 26]: 6,4
